# Measurements as given in PubChem BioAssay AID1963836 (Molecular Pharmacology Branch, DTP, NCI, 2024).
# Test system: 857933-349-R-J2-PDC complex spheroid viability
# Assay: Anticancer human tumor 857933-349-R-J2-PDC patient-derived colon adenocarcinoma cell line growth inhibition [POLQ]
# Details: for IC50: curve of first compound; for viability, T/C: stronger effect = lower value
# In short: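 Growth inhibition in 3D: complex spheroids (tumor PDC, HUVEC, MSC) treated with POLQ inhibitor combinations; where Cmax unknown, highest tested concentration 10 microM, except SN-38 at 1 microM.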
# [1] = second compound 0.0316 µM, first compound 0.0316 µM
# [2] = second compound 0.0316 µM, first compound 0.1 µM
# [3] = second compound 0.0316 µM, first compound 0.316 µM
# [4] = second compound 0.0316 µM, first compound 1 µM
# [5] = second compound 0.1 µM, first compound 0.0316 µM
# [6] = second compound 0.1 µM, first compound 0.1 µM
# [7] = second compound 0.1 µM, first compound 0.316 µM
# [8] = second compound 0.1 µM, first compound 1 µM
# [9] = second compound 0.316 µM, first compound 0.0316 µM
# [10] = second compound 0.316 µM, first compound 0.1 µM
# [11] = second compound 0.316 µM, first compound 0.316 µM
# [12] = second compound 0.316 µM, first compound 1 µM
# [13] = second compound 1 µM, first compound 0.0316 µM
# [14] = second compound 1 µM, first compound 0.1 µM
# [15] = second compound 1 µM, first compound 0.316 µM
# [16] = second compound 1 µM, first compound 1 µM
# [17] = second compound 3.16 µM, first compound 0.0316 µM
# [18] = second compound 3.16 µM, first compound 0.1 µM
# [19] = second compound 3.16 µM, first compound 0.316 µM
# [20] = second compound 3.16 µM, first compound 1 µM
# [21] = second compound 10 µM, first compound 0.0316 µM
# [22] = second compound 10 µM, first compound 0.1 µM
# [23] = second compound 10 µM, first compound 0.316 µM
# [24] = second compound 10 µM, first compound 1 µM
# [25] = second compound 0.0316 µM, first compound 3.16 µM
# [26] = second compound 0.0316 µM, first compound 10 µM
# [27] = second compound 0.1 µM, first compound 3.16 µM
# [28] = second compound 0.1 µM, first compound 10 µM
# [29] = second compound 0.316 µM, first compound 3.16 µM
# [30] = second compound 0.316 µM, first compound 10 µM
# [31] = second compound 1 µM, first compound 3.16 µM
# [32] = second compound 1 µM, first compound 10 µM
# [33] = second compound 3.16 µM, first compound 3.16 µM
# [34] = second compound 3.16 µM, first compound 10 µM
# [35] = second compound 10 µM, first compound 3.16 µM
# [36] = second compound 10 µM, first compound 10 µM
# 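Note: spheroids exposed to compounds for seven days before readout.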
smiles,measurement,setting,value
COc1cccc(OCCCN)c1-c1cc(Nc2cnc(C#N)cn2)n[nH]1 + COC1C(OC(N)=O)C(O)C(Oc2ccc3c(O)c(NC(=O)c4ccc(O)c(CC=C(C)C)c4)c(=O)oc3c2C)OC1(C)C,IC50,second compound 0.0316 µM,89.5 nM
same,IC50,second compound 0.1 µM,66.9 nM
same,IC50,second compound 0.316 µM,155 nM
same,IC50,second compound 1 µM,86.9 nM
same,IC50,second compound 3.16 µM,204 nM
same,IC50,second compound 10 µM,170 nM
same,"viability, T/C","second compound 0.0316 µM, first compound 0.00316 µM",102%
same,"viability, T/C","second compound 0.0316 µM, first compound 0.01 µM",75.5%
same,"viability, T/C",[1],61.3%
same,"viability, T/C",[2],48.8%
same,"viability, T/C",[3],44.1%
same,"viability, T/C",[4],29.9%
same,"viability, T/C","second compound 0.1 µM, first compound 0.00316 µM",79.5%
same,"viability, T/C","second compound 0.1 µM, first compound 0.01 µM",113%
same,"viability, T/C",[5],58.8%
same,"viability, T/C",[6],51.5%
same,"viability, T/C",[7],48.9%
same,"viability, T/C",[8],35.4%
same,"viability, T/C","second compound 0.316 µM, first compound 0.00316 µM",85.2%
same,"viability, T/C","second compound 0.316 µM, first compound 0.01 µM",86.1%
same,"viability, T/C",[9],62.6%
same,"viability, T/C",[10],53.2%
same,"viability, T/C",[11],48.5%
same,"viability, T/C",[12],35.4%
same,"viability, T/C","second compound 1 µM, first compound 0.00316 µM",95%
same,"viability, T/C","second compound 1 µM, first compound 0.01 µM",84.2%
same,"viability, T/C",[13],52.8%
same,"viability, T/C",[14],51.2%
same,"viability, T/C",[15],46.5%
same,"viability, T/C",[16],32.2%
same,"viability, T/C","second compound 3.16 µM, first compound 0.00316 µM",93.7%
same,"viability, T/C","second compound 3.16 µM, first compound 0.01 µM",89.1%
same,"viability, T/C",[17],79.5%
same,"viability, T/C",[18],56.2%
same,"viability, T/C",[19],47.5%
same,"viability, T/C",[20],33.6%
same,"viability, T/C","second compound 10 µM, first compound 0.00316 µM",88%
same,"viability, T/C","second compound 10 µM, first compound 0.01 µM",77.7%
same,"viability, T/C",[21],70.5%
same,"viability, T/C",[22],54.2%
same,"viability, T/C",[23],44%
same,"viability, T/C",[24],31%
CCc1cc2c(N3CCc4c(cc(Cn5ccnc5)cc4-c4cn(C)nc4C(F)(F)F)C3=O)cc(C)nc2c(OC)n1 + Cc1cccc(N(C)C(=O)C2C(O)CCN2c2nc(C)cc(C(F)(F)F)c2C#N)c1,IC50,second compound 0.0316 µM,> 10000 nM
same,IC50,second compound 0.1 µM,> 10000 nM
same,IC50,second compound 0.316 µM,> 10000 nM
same,IC50,second compound 1 µM,> 10000 nM
same,IC50,second compound 3.16 µM,> 10000 nM
same,IC50,second compound 10 µM,> 10000 nM
same,"viability, T/C",[1],106%
same,"viability, T/C",[2],93.2%
same,"viability, T/C",[3],99%
same,"viability, T/C",[4],79.9%
same,"viability, T/C",[25],75.1%
same,"viability, T/C",[26],62.3%
same,"viability, T/C",[5],106%
same,"viability, T/C",[6],103%
same,"viability, T/C",[7],78.5%
same,"viability, T/C",[8],82%
same,"viability, T/C",[27],77.6%
same,"viability, T/C",[28],68.8%
same,"viability, T/C",[9],100%
same,"viability, T/C",[10],89.6%
same,"viability, T/C",[11],83.5%
same,"viability, T/C",[12],82.8%
same,"viability, T/C",[29],80.3%
same,"viability, T/C",[30],61.6%
same,"viability, T/C",[13],99.6%
same,"viability, T/C",[14],83%
same,"viability, T/C",[15],86.3%
same,"viability, T/C",[16],85.2%
same,"viability, T/C",[31],73.8%
same,"viability, T/C",[32],61.9%
same,"viability, T/C",[17],107%
same,"viability, T/C",[18],91.3%
same,"viability, T/C",[19],82.7%
same,"viability, T/C",[20],77.8%
same,"viability, T/C",[33],60.2%
same,"viability, T/C",[34],55.1%
same,"viability, T/C",[21],95.4%
same,"viability, T/C",[22],99.9%
same,"viability, T/C",[23],92.5%
same,"viability, T/C",[24],72.6%
same,"viability, T/C",[35],67.6%
same,"viability, T/C",[36],62.8%
CC1COCCN1c1cc(-c2ccnn2C)c2ccnc(-c3ccn[nH]3)c2n1 (stereo not drawn) + COC1C(OC(N)=O)C(O)C(Oc2ccc3c(O)c(NC(=O)c4ccc(O)c(CC=C(C)C)c4)c(=O)oc3c2C)OC1(C)C,IC50,second compound 0.0316 µM,209 nM
same,IC50,second compound 0.1 µM,282 nM
same,IC50,second compound 0.316 µM,157 nM
same,IC50,second compound 1 µM,257 nM
same,IC50,second compound 3.16 µM,170 nM
same,IC50,second compound 10 µM,311 nM
same,"viability, T/C",[1],89.2%
same,"viability, T/C",[2],66.2%
same,"viability, T/C",[3],40.3%
same,"viability, T/C",[4],35.8%
same,"viability, T/C",[25],39.2%
same,"viability, T/C",[26],48.6%
same,"viability, T/C",[5],80.3%
same,"viability, T/C",[6],77.6%
same,"viability, T/C",[7],47.2%
same,"viability, T/C",[8],30.7%
same,"viability, T/C",[27],41.6%
same,"viability, T/C",[28],52.8%
same,"viability, T/C",[9],71.9%
same,"viability, T/C",[10],55.7%
same,"viability, T/C",[11],41.2%
same,"viability, T/C",[12],37.1%
same,"viability, T/C",[29],34.2%
same,"viability, T/C",[30],51.7%
same,"viability, T/C",[13],58.1%
same,"viability, T/C",[14],73.3%
same,"viability, T/C",[15],46.4%
same,"viability, T/C",[16],33.6%
same,"viability, T/C",[31],56.2%
same,"viability, T/C",[32],50%
same,"viability, T/C",[17],76.4%
same,"viability, T/C",[18],57.5%
same,"viability, T/C",[19],40.6%
same,"viability, T/C",[20],37%
same,"viability, T/C",[33],38%
same,"viability, T/C",[34],48.7%
same,"viability, T/C",[21],65.2%
same,"viability, T/C",[22],63.2%
same,"viability, T/C",[23],50.1%
same,"viability, T/C",[24],39.2%
same,"viability, T/C",[35],49.1%
same,"viability, T/C",[36],50.3%
CC1COCCN1c1cc(C2(O)CC3CCC(C2)O3)c2cnn(-c3ccn[nH]3)c2n1 (stereo not drawn) + Nc1ccc(C#CCN(C(=O)Cc2ncc(C(F)(F)F)cc2C(F)(F)F)c2ccc(F)cc2)nn1,IC50,second compound 0.0316 µM,863 nM
same,IC50,second compound 0.1 µM,> 10000 nM
same,IC50,second compound 0.316 µM,787 nM
same,IC50,second compound 1 µM,662 nM
same,IC50,second compound 3.16 µM,> 10000 nM
same,IC50,second compound 10 µM,> 10000 nM
same,"viability, T/C",[1],72.7%
same,"viability, T/C",[2],76.5%
same,"viability, T/C",[3],60.7%
same,"viability, T/C",[4],50.3%
same,"viability, T/C",[25],47.4%
same,"viability, T/C",[26],47.6%
same,"viability, T/C",[5],74.4%
same,"viability, T/C",[6],74.7%
same,"viability, T/C",[7],52.7%
same,"viability, T/C",[8],53.1%
same,"viability, T/C",[27],45.5%
same,"viability, T/C",[28],59%
same,"viability, T/C",[9],77.9%
same,"viability, T/C",[10],63.2%
same,"viability, T/C",[11],58.2%
same,"viability, T/C",[12],46.2%
same,"viability, T/C",[29],44.7%
same,"viability, T/C",[30],40.1%
same,"viability, T/C",[13],78%
same,"viability, T/C",[14],70.4%
same,"viability, T/C",[15],61.8%
same,"viability, T/C",[16],40.9%
same,"viability, T/C",[31],40%
same,"viability, T/C",[32],49.2%
same,"viability, T/C",[17],79.2%
same,"viability, T/C",[18],72.3%
same,"viability, T/C",[19],61.4%
same,"viability, T/C",[20],44.1%
same,"viability, T/C",[33],49.9%
same,"viability, T/C",[34],56.4%
same,"viability, T/C",[21],78.2%
same,"viability, T/C",[22],58.9%
same,"viability, T/C",[23],62.1%
same,"viability, T/C",[24],54%
same,"viability, T/C",[35],48.6%
same,"viability, T/C",[36],56%
